Results reported in US11174299B2, “Peptides and compositions for prevention of cell adhesion and methods of using same” (D[…]., priority 2008, dated 2021).

Experiments:
[1] = tested on: P. aeruginosa strong biofilm producer strain 142; assay: Bacterial adhesion assay on contact lenses, P. aeruginosa strong biofilm producer strain 142; assay type: cell-based, Pseudomonas aeruginosa; conditions: PBS (No-TLF)
Description: (§1) The peptide APi1775 (gr14Z-BBC2) according to SEQ ID NO: 28 was immobilized onto Etafilcon A™ (Johnson & Johnson Vision Care Inc., Jacksonville, Fla., USA; Base curve: 8.7 mm, Diameter: 14.0 mm) contact lenses. […] The coating (covalently bonding the peptide to the surface of the contact lenses) procedure was performed by activating the surface of the contact lenses with carboxyl-reactive crosslinker reactive groups EDC (1-ethyl-3-(-3-dimethylaminopropyl) carbodiimide hydrochloride, MW 191.70) followed by incubation with APi1775 (gr14Z-BBC2) at 0.1 μM 1.0 μM and 10 μM peptide concentration. Peptide grZ14s-nyCyc-3PEG-Pal soaked (1 μM) contact lenses were used as positive control, this peptide is used for non-covalent coating of contact lenses.
(§2) Antimicrobial activity was determined against P. aeruginosa strain 6294 (isolated from a case of microbial keratitis), P. aeruginosa strong biofilm produces strain 142 (isolated from a case of microbial keratitis) and S. aureus strain 31 (isolated from a case of contact lens-induced peripheral ulcer) following established methods. Briefly, P. aeruginosa and S. aureus were grown overnight in tryptone soya broth (TSB; Oxoid, Basingstoke, UK) and re-suspended in 1/10 TSB and PBS respectively to an OD660 nm of 0.1 (1.0×10^8 colony-forming unit (CFU) per ml). The bacterial cell suspensions were then diluted to […] for adhesion assays. Non-coated control, process control, APi1775 peptide coated and grZ14s-nvCyc-3PEG-Pal soaked lenses were washed in PBS and transferred to 1 ml of bacterial suspension in 24 well tissue culture plates (CELESTAR®, Greiner bio-one, Frickenhausen, Germany), and incubated at 37° C. for 18 hours with shaking (120 rpm). For P. aeruginosa strain 6294, the assay was performed with PBS and tear Like Fluid (TFL), for P. aeruginosa strain 142 the assay was performed with PBS and for S. aureus the assay was performed using 1/10 TSB. Lenses were washed three times following incubation with PBS to remove loosely adhered bacteria, then stirred in a vortex mixer rapidly in 2 ml of fresh PBS containing a small magnetic stirring bar. The resulting slurry was serially diluted and 20 μl was added onto nutrient agar (TSA; Oxoid, Basingstoke, UK) for recovery of cells. After incubation at 37° C. for 18 hours, viable microorganisms were enumerated as CFU for each lens. Measurements were performed in triplicates for at least three occasions.
(§3) Data were analyzed using Microsoft Office Excel and Statistical Package for the Social Sciences software version 23.0 (SPSS, Inc., Chicago, Ill.). The bacterial adhesion data were log10 (x+1) transformed prior to analysis where x is the adherent bacteria CFU/lens. Bacterial adhesion, contact lens surface elemental composition, and contact lens parameters were analysed using an independent 2-sample t-test, and expressed with descriptive statistics. Statistical significance was set at 5%.

[2] = Dissolution of peptide in Phosphate Buffer Saline (visual inspection); assay type: physicochemical
[3] = tested on: P. aeruginosa strain 6294; assay: Bacterial adhesion assay on contact lenses, P. aeruginosa strain 6294; assay type: cell-based, Pseudomonas aeruginosa; conditions: for log inhibition of P. aeruginosa 6294 adhesion: 18 hours; for percentage of inhibition of P. aeruginosa 6294 adhesion: TLF
Description: as §1, §2, §3

Murine L929 cells = assay: In vitro cytotoxicity of immobilised contact lenses (ISO 10993-5, Trypan Blue); assay type: cell-based; conditions: peptide coated contact lenses (0.1, 1.0, 10.0 μM) on murine L929 monolayer, 24 h
Description: Testing in vitro cytotoxicity of APi1775 (gr14Z-BBC2) immobilised contact lenses was performed according to ISO standard 10993-5 standardized procedures. Murine L929 cells were grown to >80% confluency in 24 well tissue culture plates (CELESTAR®, Greiner bio-one, Frickenhausen, Germany) with DMEM cell culture media. The medium was aspirated and replaced with adequate fresh growth medium every 2-3 days. All the test and control contact lenses were washed with sterile PBS prior to the start of the study and then directly placed on the cell monolayer for examination of in vitro cytotoxicity. During this any cytotoxicity of the lenses will disrupt the normal functions of cells beneath and perhaps adjacent to the samples. The samples were incubated overnight at 37° C. with 5% CO2. After 24 hours, cells were stained with vital stain (Trypan Blue; Sigma-Aldrich, St Louis, Mo., USA) and cytotoxicity was assessed using bright field and phase-contrast microscopy. Cytotoxic responses are graded according to a standard key, which quantifies the viability and zonal extent. The samples were used in triplicates.

Pseudomonas aeruginosa [4] = assay: Prevention of Pseudomonas aeruginosa attachment by synthetic peptides; assay type: cell-based; conditions: for anti adherence activity on P. aeruginosa: FIG. 3
Description: The synthetic peptide grZ28C [[…] (SEQ ID NO: 1)] gave approximately 50% prevention of Pseudomonas aeruginosa attachment at three concentrations: 50, 5 and 0.5 μg/ml (FIG. 1). The activity was similar to that of the AbacZ17C, peptide based on the anemone cytotoxin active region. Abac10C, which was used as a negative control peptide, was synthesized based on the N-terminal sequence of Abac17C, without the active residue [[…] (SEQ ID NO: 27)].
For peptide grZ35 cyc, the peptide sequence […] (SEQ ID NO: 6) which represents the extracellular region, residue 259-292, was synthesized with two Cysteines in the C and N termini and S—S bridged. For peptide grZ28C, the peptide sequence […] (SEQ ID NO: 3) which represents the extracellular region, residue 259-284, was synthesized with two Cysteines in C and N termini.

Pseudomonas aeruginosa [5] = assay: Growth test on Pseudomonas aeruginosa; assay type: cell-based; conditions: FIG. 2, FIG. 4
[6] = lens treated with 0.1 μM peptide
[7] = lens treated with 1.0 μM peptide
[8] = lens treated with 10.0 μM peptide
[9] = lens coated with 0.1 μM peptide, PBS
[10] = lens coated with 1.0 μM peptide, PBS
[11] = lens coated with 10.0 μM peptide, PBS

SVHSFDYDWYNV (SEQ ID NO: 28) (immobilized on Etafilcon A contact lens) [APi1775]
inhibition of bacterial adhesion, strain 142 [1, 6]: 44.73% | log inhibition of P. aeruginosa strain 142 adhesion [1, 6]: 0.26 log | inhibition of bacterial adhesion, strain 142 [1, 7]: 43.62% | log inhibition of P. aeruginosa strain 142 adhesion [1, 7]: 0.25 log | inhibition of bacterial adhesion, strain 142 [1, 8]: 77.80% | log inhibition of P. aeruginosa strain 142 adhesion [1, 8]: 0.65 log | dissolution in Phosphate Buffer Saline ([2]; 0.1 μM, 1.0 μM concentration): completely dissolved | dissolution in Phosphate Buffer Saline ([2]; 10.0 μM, rotary shaker at 37° C. overnight, visual inspection): completely dissolved | percentage inhibition of P. aeruginosa 6294 adhesion [3, 9]: 77.1% | log inhibition of P. aeruginosa 6294 adhesion [3, 9]: 0.79 log | percentage inhibition of P. aeruginosa 6294 adhesion [3, 10]: 77.5% | log inhibition of P. aeruginosa 6294 adhesion [3, 10]: 0.83 log | percentage inhibition of P. aeruginosa 6294 adhesion [3, 11]: 47.7% | log inhibition of P. aeruginosa 6294 adhesion [3, 11]: 0.29 log | percentage of inhibition of P. aeruginosa 6294 adhesion [3, 6]: 31.76% | log inhibition of P. aeruginosa 6294 adhesion ([3]; lens treated with 0.1 μM peptide, Tear Like Fluid (TLF)): 0.17 log | percentage of inhibition of P. aeruginosa 6294 adhesion [3, 7]: 80.40% | log inhibition of P. aeruginosa 6294 adhesion ([3]; lens treated with 1.0 μM peptide, Tear Like Fluid (TLF)): 0.71 log | percentage of inhibition of P. aeruginosa 6294 adhesion [3, 8]: 96.64% | log inhibition of P. aeruginosa 6294 adhesion ([3]; lens treated with 10.0 μM peptide, Tear Like Fluid (TLF)): 1.47 log | cytotoxicity to mammalian cells in vitro (Murine L929 cells): not cytotoxic

CSFSQNKSVHSFDYDWYNVSDQADLKNC (SEQ ID NO: 1) [grZ28C]
anti adherence activity on P. aeruginosa (Pseudomonas aeruginosa [4]): anti adherence activity | prevention of Pseudomonas aeruginosa attachment (Pseudomonas aeruginosa [4]; at three concentrations: 50, 5 and 0.5 μg/ml (FIG. 1)): approximately 50% | effect on P. aeruginosa growth (Pseudomonas aeruginosa [5]): not inhibited

SFSQNKSVHSFDYDWYNVSDQADLKNQLGDAGYV (SEQ ID NO: 6) [grZ35 cyc]
anti adherence activity on P. aeruginosa (Pseudomonas aeruginosa [4]): anti adherence activity | effect on P. aeruginosa growth (Pseudomonas aeruginosa [5]): not inhibited
